From US10196398B2, “Pesticidally active tetracyclic derivatives with sulfur containing substituents” (Syngenta Participations AG, priority 2014, dated 2019)
Where two headings read alike, the source gives them in different places.

Columns and labels:
Type in all cases: in vivo
Diabrotica balteata = test: Example B1: Diabrotica balteata (corn root worm), sprayed maize sprouts; settings: 96 h, read-out: effect in at least one of the two categories (mortality or growth inhibition)
Procedure: Example B1: Diabrotica balteata (Corn Root Worm)
Maize sprouts placed onto an agar layer in 24-well microtiter plates were treated with aqueous test solutions prepared from 10′000 ppm DMSO stock solutions by spraying. After drying, the plates were infested with L2 larvae (6 to 10 per well). The samples were assessed for mortality and growth inhibition in comparison to untreated samples 4 days after infestation.

Euschistus heros = test: Example B2: Euschistus heros (neotropical brown stink bug), sprayed soybean leaves; settings: 120 h, read-out: effect in at least one of the two categories (mortality or growth inhibition)
Procedure: Example B2: Euschistus heros(Neotropical Brown Stink Bug)
Soybean leaves on agar in 24-well microtiter plates were sprayed with aqueous test solutions prepared from 10′000 ppm DMSO stock solutions. After drying the leaves were infested with N2 nymphs. The samples were assessed for mortality and growth inhibition in comparison to untreated samples 5 days after infestation.

Myzus persicae [1] = test: Example B3: Myzus persicae (green peach aphid), feeding/contact activity; settings: 144 h
Procedure: Example B3: Myzus persicae (Green Peach Aphid):Feeding/Contact Activity
Sunflower leaf discs were placed onto agar in a 24-well microtiter plate and sprayed with aqueous test solutions prepared from 10′000 ppm DMSO stock solutions. After drying, the leaf discs were infested with an aphid population of mixed ages. The samples were assessed for mortality 6 days after infestation.

Plutella xylostella = test: Example B5: Plutella xylostella (diamond back moth), artificial diet; settings: 120 h, read-out: effect in at least one of the two categories (mortality or growth inhibition)
Procedure: Example B5: Plutella xylostella (Diamond Back Moth)
24-well microtiter plates with artificial diet were treated with aqueous test solutions prepared from 10′000 ppm DMSO stock solutions by pipetting. After drying, the plates were infested with L2 larvae (10 to 15 per well). The samples were assessed for mortality and growth inhibition in comparison to untreated samples 5 days after infestation.

Spodoptera littoralis [2] = test: whole plant or invertebrate; settings: foliar, 72 h, read-out: control (mortality, anti-feeding effect, or growth inhibition)
Procedure: (§1) Example B6: Spodoptera littoralis (Egyptian Cotton Leaf Worm)
Cotton leaf discs were placed onto agar in 24-well microtiter plates and sprayed with aqueous test solutions prepared from 10′000 ppm DMSO stock solutions. After drying the leaf discs were infested with five L1 larvae. The samples were assessed for mortality, anti-feeding effect, and growth inhibition in comparison to untreated samples 3 days after infestation. Control of Spodoptera littoralis by a test sample is given when at least one of the categories mortality, anti-feedant effect, and growth inhibition is higher than the untreated sample.

Spodoptera littoralis [3] = test: whole plant or invertebrate; settings: in Gossypium barbadense, 144 h, read-out: effect in at least one of the three categories (mortality, anti-feeding, or growth inhibition)
Text: as §1
Test compounds were applied by pipette from 10′000 ppm DMSO stock solutions into 24-well plates and mixed with agar. Lettuce seeds were placed onto the agar and the multi well plate was closed by another plate which contained also agar. After 7 days the compound was absorbed by the roots and the lettuce grew into the lid plate. The lettuce leaves were then cut off into the lid plate. Spodoptera eggs were pipetted through a plastic stencil onto a humid gel blotting paper and the lid plate was closed with it. The samples were assessed for mortality, anti-feedant effect and growth inhibition in comparison to untreated samples 6 days after infestation.

Myzus persicae [4] = test: Example B4: Myzus persicae (green peach aphid), systemic activity; settings: 144 h, test rate of 24 ppm, roots of pea seedlings in test solution, 6 days
Procedure: Example B4: Myzus persicae (Green Peach Aphid). Systemic Activity
Roots of pea seedlings infested with an aphid population of mixed ages were placed directly into aqueous test solutions prepared from 10′000 DMSO stock solutions. The samples were assessed for mortality 6 days after placing seedlings into test solutions.

[5] = tested on: Frankliniella occidentalis; test: Example B7: Frankliniella occidentalis (western flower thrips), feeding/contact activity; settings: 168 h, application rate of 200 ppm, population of mixed ages, 7 days after infestation
Procedure: Example B7: Frankliniella occidentalis (Western Flower Thrips):Feeding/Contact Activity
Sunflower leaf discs were placed on agar in 24-well microtiter plates and sprayed with aqueous test solutions prepared from […] stock solutions. After drying the leaf discs were infested with a Frankliniella population of mixed ages. The samples were assessed for mortality 7 days after infestation.

Thrips tabaci = test: Example B8: Thrips tabaci (onion thrips), feeding/contact activity; settings: 144 h, application rate of 200 ppm, population of mixed ages, 6 days after infestation
Procedure: Example B8: Thrips tabaci (Onion Thrips) Feeding/Contact Activity
Sunflower leaf discs were placed on agar in 24-well microtiter plates and sprayed with aqueous test solutions prepared from 10′000 ppm DMSO stock solutions. After drying the leaf discs were infested with a thrips population of mixed ages. The samples were assessed for mortality 6 days after infestation.

CCS(=O)(=O)c1cc2ccccc2nc1-c1cn2cnc(C(F)(F)F)cc2n1 [Compound P1, 3-ethylsulfonyl-2-[7-(trifluoromethyl)imidazo[1,2-c]pyrimidin-2-yl]quinolone]
≥ 80%: percent control (mortality or growth inhibition) at 200 ppm (Diabrotica balteata) | percent control (mortality or growth inhibition) at 200 ppm (Euschistus heros) | mortality at 200 ppm (Myzus persicae [1]) | percent control (mortality or growth inhibition) at 200 ppm (Plutella xylostella) | percent control (mortality, anti-feedant effect or growth inhibition) at 200 ppm (Spodoptera littoralis [2]) | percent control (mortality, anti-feedant effect or growth inhibition) at 12.5 ppm (Spodoptera littoralis [3])

CCS(=O)(=O)c1cc2c(cc1-c1cn3cnc(C(F)(F)F)cc3n1)nc(C(F)(F)F)n2C [Compound P2, 2-[6-ethylsulfonyl-1-methyl-2-(trifluoromethyl)benzimidazol-5-yl]-7-(trifluoromethyl)imidazo[1,2-c]pyrimidine]
≥ 80%: percent effect (mortality or growth inhibition) at 200 ppm (Diabrotica balteata; application rate of 200 ppm, L2 larvae, 4 days after infestation) | percent effect (mortality or growth inhibition) at 200 ppm (Euschistus heros; application rate of 200 ppm, N2 nymphs, 5 days after infestation) | mortality at 200 ppm (Myzus persicae [1]; application rate of 200 ppm, aphid population of mixed ages, 6 days after infestation, read-out: mortality) | mortality at 24 ppm (Myzus persicae [4]) | percent effect (mortality or growth inhibition) at 200 ppm (Plutella xylostella; application rate of 200 ppm, L2 larvae, 5 days after infestation) | mortality at 200 ppm [5] | mortality at 200 ppm (Thrips tabaci)
